Test results from the supplement of paper PMC10307832.

Legend:
Assay in all cases: relative viability (nuclei count vs DMSO), 5 days (fraction); higher = more cells survive
Bosutinib + Bortezomib = compound: COc1cc(Nc2c(C#N)cnc3cc(OCCCN4CCN(C)CC4)c(OC)cc23)c(Cl)cc1Cl [Bosutinib] + CC(C)C[C@H](NC(=O)[C@H](Cc1ccccc1)NC(=O)c1cnccn1)B(O)O [Bortezomib] (partner 0.002 µM)
How it was run: (§1)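 The day after seeding in 1536-well plates, lung cancer cell lines were treated by pin tool with a single drug, or with a fixed anchor-drug dose together with five library-drug doses (not always all listed) in √10 steps. After 5 days, a combined fix-and-stain solution (final 0.05% Triton X-100, 1% formaldehyde, 1 ug/ml Hoechst) was added. Nuclei counted on 4× images gave relative viability as treated counts over vehicle counts, reported as the median of duplicate plates.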

Bosutinib + Pemetrexed = compound: COc1cc(Nc2c(C#N)cnc3cc(OCCCN4CCN(C)CC4)c(OC)cc23)c(Cl)cc1Cl [Bosutinib] + Nc1nc2[nH]cc(CCc3ccc(C(=O)N[C@@H](CCC(=O)O)C(=O)O)cc3)c2c(=O)[nH]1 [Pemetrexed] (partner 0.2 µM)
How it was run: as §1

Bosutinib + Palbociclib = compound: COc1cc(Nc2c(C#N)cnc3cc(OCCCN4CCN(C)CC4)c(OC)cc23)c(Cl)cc1Cl [Bosutinib] + CC(=O)c1c(C)c2cnc(Nc3ccc(N4CCNCC4)cn3)nc2n(C2CCCC2)c1=O [Palbociclib] (partner 0.5 µM)
How it was run: as §1

Bosutinib + OSI-027 = compound: COc1cc(Nc2c(C#N)cnc3cc(OCCCN4CCN(C)CC4)c(OC)cc23)c(Cl)cc1Cl [Bosutinib] + COc1cccc2cc(-c3nc([C@H]4CC[C@H](C(=O)O)CC4)n4ncnc(N)c34)[nH]c12 [OSI-027] (partner 0.5 µM)
How it was run: as §1

Bosutinib + Tozasertib = compound: COc1cc(Nc2c(C#N)cnc3cc(OCCCN4CCN(C)CC4)c(OC)cc23)c(Cl)cc1Cl [Bosutinib] + Cc1cc(Nc2cc(N3CCN(C)CC3)nc(Sc3ccc(NC(=O)C4CC4)cc3)n2)n[nH]1 [Tozasertib] (partner 0.1 µM)
How it was run: as §1

Cell Line	relative viability (Bosutinib + Bortezomib; first compound 0.01 µM)	relative viability (Bosutinib + Bortezomib; first compound 0.03162 µM)	relative viability (Bosutinib + Bortezomib; first compound 0.1 µM)	relative viability (Bosutinib + Bortezomib; first compound 1 µM)	relative viability (Bosutinib + Pemetrexed; first compound 0.01 µM)	relative viability (Bosutinib + Pemetrexed; first compound 0.03162 µM)	relative viability (Bosutinib + Pemetrexed; first compound 0.1 µM)	relative viability (Bosutinib + Pemetrexed; first compound 1 µM)	relative viability (Bosutinib + Palbociclib; first compound 0.01 µM)	relative viability (Bosutinib + Palbociclib; first compound 0.03162 µM)	relative viability (Bosutinib + Palbociclib; first compound 0.1 µM)	relative viability (Bosutinib + Palbociclib; first compound 1 µM)	relative viability (Bosutinib + OSI-027; first compound 0.01 µM)	relative viability (Bosutinib + OSI-027; first compound 0.03162 µM)	relative viability (Bosutinib + OSI-027; first compound 0.1 µM)	relative viability (Bosutinib + OSI-027; first compound 1 µM)	relative viability (Bosutinib + Tozasertib; first compound 0.01 µM)	relative viability (Bosutinib + Tozasertib; first compound 0.03162 µM)	relative viability (Bosutinib + Tozasertib; first compound 0.1 µM)	relative viability (Bosutinib + Tozasertib; first compound 1 µM)
NCI-H441	0.579	0.726	0.44	0.806	0.242	0.272	0.264	0.251	0.193	0.217	0.262	0.22	0.622	0.71	0.719	0.628	0.673	0.589	0.599	0.823
NCI-H2228	1.03	–	1.16	1.12	0.354	0.308	0.361	0.319	0.955	0.943	0.955	0.859	0.489	0.533	0.577	0.609	0.313	0.319	0.306	0.287
NCI-H1975	0.432	0.399	0.424	0.388	0.287	0.289	0.292	0.281	0.572	0.638	0.625	0.516	0.735	0.761	0.697	0.534	0.739	0.871	0.687	0.583
NCI-H647	1.06	1.06	0.919	0.405	0.221	0.179	0.162	0.171	0.528	0.394	0.452	0.299	0.661	0.741	0.724	0.496	0.38	0.203	0.389	0.201
A-427	0.958	1.04	1.08	0.958	1.01	1.07	1.02	1.01	0.585	0.496	0.504	0.523	0.489	0.498	0.553	0.48	0.231	0.227	0.217	0.194
LXF-289	1	1.03	1.02	0.991	0.908	1.04	0.985	0.88	0.634	0.614	0.607	0.669	0.765	0.849	0.823	0.898	0.183	0.191	0.238	0.179
NCI-H1437	0.599	0.485	0.464	0.436	0.317	0.377	0.311	0.29	0.332	0.281	0.317	0.343	0.887	0.878	0.938	0.886	0.401	0.426	0.407	0.344
RERF-LC-KJ	1.08	1.08	1.07	1.05	0.504	0.495	0.492	0.478	0.956	1.06	1.06	1.08	0.594	0.59	0.607	0.473	0.58	0.436	0.491	0.599
HCC-44	0.873	0.891	0.867	0.567	0.661	0.642	0.683	0.603	0.985	0.967	0.964	0.865	0.525	0.673	0.594	0.571	1.07	1.18	1.09	0.685
EPLC-272H	0.76	0.817	0.911	0.9	0.324	0.382	0.323	0.319	0.282	0.305	0.313	0.317	0.262	0.34	0.312	0.342	0.307	0.339	0.347	0.351
NCI-H322M	1.23	1.14	1.35	1.22	0.579	0.594	0.6	0.521	0.523	0.452	0.492	0.414	0.531	0.566	0.549	0.422	0.472	0.46	0.497	0.315
